Data taken from patent publication US20180311204A1, “METHOD FOR PREVENTING OR TREATING HEART FAILURE” (GUANGZHOU MEDICAL UNIVERSITY, priority 2017, published 2018).

Experiments:
[1] = tested on: Myocardial Ischemia Rat Model; assay: Echocardiography in myocardial ischemia rat model (LAD ligation), effect of nobiletin on ventricle; format: in vivo; conditions: 21-day experiment, compared to the infarction group
[2] = tested on: Myocardial Ischemia Rat Model; assay: Determination of infarct size by TTC staining; format: in vivo; conditions: compared to the infarction group
Method: 60 rats were randomized into 6 groups: (i) sham group (Sham), n=10, (left anterior descending (LAD) coronary arteries of the rats were only laid upon sutures without ligation, and 0.5% Tween normal saline was injected intraperitoneally); (ii) infarction group (AMI), n=10, (LAD coronary arteries of the rats were ligated before 0.5% Tween normal saline was injected intraperitoneally); (iii) nobiletin group of low dosage (AMI+NOB-L, n=10; LAD coronary arteries of the rats were ligated before 7.5 mg/kg nobiletin was injected intraperitoneally); (v) nobiletin group of medium dosage (AMI+NOB-M), n=10, (LAD coronary arteries of the rats were ligated before 15 mg/kg nobiletin was injected intraperitoneally); (vi) nobiletin group of high dosage (AMI+NOB-H), n=10, (LAD coronary arteries of the rats were ligated before 30 mg/kg nobiletin was injected intraperitoneally); (vii) enalapril group (AMI+Enalapril), n=10, (LAD coronary arteries of the rats were ligated before 10 mg/kg enalapril was given intragastrically); echocardiograms were taken after the 21-day experiment. Male SD rats were weighed and then anaesthetized by intraperitoneal injections of 10% chloral hydrate (300 mg/kg). The rats were fixed on a table lying on their back, each connected with an electrocardiography and 2-lead electrocardiograms (ECGs) were recorded. The rats were inserted with trachea cannulas and artificially ventilated with a ventilator (positive airway pressure, frequency: 70 times/min, Ti/(I:E)=5:4, VT: about 15 ml/kg). Sterilized the left parasternal skin on the third and forth intercostals regions, cut the skin and separated muscle layers trough blunt dissection, opened the thorax, then cut the pericardium to expose the left ventricle and the left auricle, the left ventricle coronary artery was seen descending from the middle of the left auricle to the anterior wall of the left ventricle (see FIG. 1). Using left coronary artery as a reference, between left auricle and pulmonary conus arteriosus, the left anterior descending (LAD) coronary arteries of the rats were ligated by NO. 6-0 sutures. ST segments rose in 2-lead electrocardiogram of the rat after LAD ligation (see FIG. 2), and myocardial ischemia symptoms such as the distal myocardial tissues turned pale after LAD ligation acted as an index of whether the ligation worked (see FIG. 3). Sham-treated rats underwent the same surgical procedure without the ligation of LAD coronary artery. […] When myocardial infarction occurs for some time, dehydrogenases in the cells were released and lost due to cell membrane damages. Because TTC is not deoxidized into a colored form, infarcted myocardium cannot be stained. […] (2) […]: Removed atriums and right ventricles, restored left ventricles were weighed and recorded. […] Weighed and recorded each slices. […]

[3] = tested on: H9C2 cells; assay: Apoptosis detection by Annexin V/PI staining in cardiomyocytes subjected to oxygen-glucose deprivation (OGD); format: cell-based; conditions: H9C2 cells with OGD treatment, 5, 10, 20, 40, 80 μM nobiletin, dose-dependent manner, versus OGD control
Method: In vitro, H9C2 cells with OGD treatment were used to model myocardial ischemia. OGD treatment: the cells were cultured and subjected to OGD when the density of the cells reached to 80%-90%. Collected the OGD-treated cells from the medium and rinsed trice with glucose-free EBSS, after that cultured the cells in the same medium at 37° C. in an anoxia chamber saturated with 94% N2/5% CO2/1% O2 for a preset time.
After previous procedures, the cells were digested with 0.25% trypsin and collected to stain with both fluorescein isothiocyanate (FITC) labeled […] (Annexin V-FITC) and PI (according to the manufacturer's protocol of Annexin V-FITC kits). Flow cytometry detection was carried out immediately under an excitation wavelength of […] to detect 1×10^4 cells. PI emits light of a wavelength about 623 nm (red fluorescence) while FITC emits light of about 520 nm (green fluorescence). Analyzed the detection data by CELLQEST Software and the results were shown in scatter plots (see FIG. 9A-9F) and statistics (see FIG. 10).

[4] = AMI+Enalapril, 10 mg/kg intragastrically
[5] = enalapril group, 10 mg/kg intragastrically
[6] = AMI+NOB-H, 30 mg/kg intraperitoneally
[7] = AMI+NOB-M, 15 mg/kg intraperitoneally
[8] = nobiletin groups (7.5, 15, 30 mg/kg intraperitoneally)

SMILES | left ventricular ejection fraction (LVEF) [1, 4] | left ventricular fractional shortening (LVFS) [1, 4] | rise of left ventricular internal dimension, diastolic (LVIDD) [1, 4] | rise of left ventricular internal dimension, systolic (LVIDS) [1, 4] | infarct area percentages (FIG. 8) [2, 5] | white infarct areas in TTC-stained myocardium (FIG. 7) [2, 5] | left ventricular ejection fraction (LVEF) [1, 6] | left ventricular fractional shortening (LVFS) [1, 6] | rise of left ventricular internal dimension, diastolic (LVIDD) [1, 6] | rise of left ventricular internal dimension, systolic (LVIDS) [1, 6] | left ventricular ejection fraction (LVEF) [1, 7] | left ventricular fractional shortening (LVFS) [1, 7] | rise of left ventricular internal dimension, diastolic (LVIDD) [1, 7] | rise of left ventricular internal dimension, systolic (LVIDS) [1, 7] | infarct area percentages (FIG. 8) [2, 8] | white infarct areas in TTC-stained myocardium (FIG. 7) [2, 8] | apoptosis resulting from OGD [3]
CCOC(=O)[C@H](CCc1ccccc1)N[C@@H](C)C(=O)N1CCC[C@H]1C(=O)O [enalapril, reference compound] | significantly increased | significantly increased | no significant reduction | significantly reduced | lower | smaller |  |  |  |  |  |  |  |  |  |  | 
COc1ccc(-c2cc(=O)c3c(OC)c(OC)c(OC)c(OC)c3o2)cc1OC [nobiletin] |  |  |  |  |  |  | significantly increased | significantly increased | no significant reduction | significantly reduced | significantly increased | significantly increased | no significant reduction | significantly reduced | lower | smaller | significantly reduced
